According to patent US20260108496A1, “METHODS FOR REPROGRAMING EXHAUSTED T CELLS AND BOOSTING IMMUNE CHECKPOINT BLOCKADE THERAPY FOR CANCER” (Ohio State Innovation Foundation, priority 2022, published 2026):

How the values were obtained:
[1] = test system: human CD8+ T cells; test: BMP4 agonist treatment of human CD8+ T cells under chronic strong TCR stimulation; assay type: cell-based
Text: To determine whether activating the SMAD1/5-dependent pathway attenuates a progression of chronically stimulated T cells to dysfunction, we augmented SMAD1/5-signaling using SB4 (2-[[(4-Bromophenyl)methyl]thio]benzoxazole), as shown in the formula: […]
SB4 is a selective small molecule BMP4 agonist (BMP4a) that stabilizes SMAD1/5 phosphorylation—in human CD8+ T cells under chronic strong TCR stimulation (FIG. 15a). […] CD39, CD103, and CD101 (FIG. 15e-i). Importantly. […] Taken together, these findings reveal a novel role for BMP4 signals in reversing exhaustion features and enhancing the survival of chronically stimulated CD8+ T cells.
For “Weak TCR” stimulation, 30 ng/ml of purified monoclonal anti-human CD3 (clone: OKT3; BioLegend) was continuously added onto the seeded CBMCs to provide TCR stimulation plus natural costimulation via CD80/CD86 on Fc-expressing CBMCs that survive in the first few days. For “Strong TCR” stimulation setting, flat-bottom plates were coated with purified monoclonal anti-human CD3 (5 ug/ml) and anti-human CD28 (1 ug/ml) (clone: CD28.2; BioLegend) at 4° C. overnight, then CMBCs were isolated and seeded in complete T cell medium as described above on day 0. On day 7, viable CD8+ T cells were FACS-purified using the Sony MA900 cell sorter. Purified CD8+ T cells were then continuously stimulated in plates coated with anti-CD3 only (5 ug/ml). Media was replenished every 2-3 days, and cells were incubated at 37 C and 5% CO2 throughout the duration of the experiment. Human TGFβ1 (5 ng/ml, Peprotech) was added to the media starting on day 7. […] Vitamin C (100 μM, MedChemExpress LLC) was added to the media starting on day 21. For the acute TCR stimulation condition, anti-CD3 was no longer added to the media starting on day 7. For recovery experiments in FIG. 16 and FIGS. 22 and 26, CD8+ T cells were rested from TCR stimulation and TGFβ1 starting on day 28 for 7-14 days in T cell media containing recombinant human IL-15 only (10 ng/ml).
(§1) On days 7, 14, 21, and 28 (and day 35 and 42 for recovery experiments), human CBMCs were stimulated with PMA/Ionomycin (Cell Stimulation Cocktail plus protein transport inhibitors, eBioscience) for 3 hours at 37° C., 5% CO2. Incubation was followed immediately by antibody intracellular staining for flow cytometry.

[2] = test system: LCMV-specific CD8+ T cells; assay type: in vivo, C57BL/6 mice; conditions: treatment followed by anti-PD-L1
[3] = test system: human CD8+ T cells; test: RNA-sequencing of human CD8+ T cells; assay type: cell-based
Procedure: RNA was isolated using PicoPure™ RNA Isolation Kit (Applied Biosystems) from frozen cell pellets of human CD8+ T cells that were FACS-purified from days 0 (naïve), 7, and 28. Following the kit protocol. Partek Flow was used for RNA-seq analysis. In brief, pre-alignment QC/QA analysis was performed on the FASTQ files, followed by read alignment on human whole genome hg38 using STAR. The aligned reads were quantified to the hg38 RefSeq Transcripts 98 using the Quantify to annotation model on Partek and gene counts were filtered (exclude features where maximum <50.0). Filtered gene counts were normalized using median ratio for DESeq2 analysis to measure differential gene expression among different populations of CD8+ T cells. Differentially expressed genes (DEGs) were identified for genes showing fold change ≥2 and p-value 0.05.

[4] = test system: Dysf. CD8+ T cells; test: reprogramming treatment of Dysf. (chronic TCR plus TGFβ1) human CD8+ T cells; assay type: cell-based
Procedure: On day 7, viable CD8+ T cells were FACS-purified using the Sony MA900 cell sorter. Purified CD8+ T cells were then continuously stimulated in plates coated with anti-CD3 only (5 ug/ml). Media was replenished every 2-3 days, and cells were incubated at 37 C and 5% CO2 throughout the duration of the experiment. Human TGFβ1 (5 ng/ml, Peprotech) was added to the media starting on day 7. Treatment with RepSox (25 μM) and SB4 (10 μM) (MedChemExpress LLC) or vehicle control (DMSO, ThermoFisher) were added to the media starting on day 14 or 21. Vitamin C (100 μM, MedChemExpress LLC) was added to the media starting on day 21. For the acute TCR stimulation condition, anti-CD3 was no longer added to the media starting on day 7. For recovery experiments in FIG. 16 and FIGS. 22 and 26, CD8+ T cells were rested from TCR stimulation and TGFβ1 starting on day 28 for 7-14 days in T cell media containing recombinant human IL-15 only (10 ng/ml).
as §1
Human CBMCs from ex vivo stimulation experiments (acute or chronic TCR, and chronic TCR+TGFβ1) were labeled with 5(6)-Carboxyfluorescein diacetate N-succinimidyl ester (CFSE) (1 μM, Sigma) by staining in PBS for 7 minutes at room temperature, followed by quenching with 20% FBS. Proliferation was tracked on days 35 and 42 by assessing CFSE fluorescence via flow cytometry. Each peak of CFSE fluorescence signal represents one cell division cycle.

[5] = test system: human CD8+ T cells; test: whole-genome bisulfite sequencing of human CD8+ T cells; assay type: cell-based
Procedure: Human CD8+ T cells were sorted on days 0 (naïve), 7, and 28, and genomic DNA was extracted and bisulfite-treated to convert unmethylated cytosine to uracil residues using the EZ DNA Methylation-Direct Kit (Zymo). DNA libraries were prepared using Swift Accel-NGS® D Methyl-Seq DNA Library Kit according to the manufacturer's protocol. The libraries were purified by the AMPureXP Beads followed by QC using Qubit method, and the purified DNA was captured on an Illumina flow cell for cluster generation. Libraries were sequenced on the NovaSeq-S2 platform following the manufacturer's protocols. Sequencing data were aligned to the Hg38 genome using BSMAP. Adapter were trimmed from FASTQ sequences (trimglore) and mapped to the hg38 genome using the BSMAP v. 2.74 software. CpGs were extracted by the methratio.py in the BSMAP package. Differential analysis of CpG methylation among the datasets was determined with a Bayesian hierarchical model to detect regional methylation differences with at least three CpG site. Differentially methylated regions (DMRs) were identified using Bioconductor package DSS and custom R scripts with a threshold of 30% change in methylation ratio and P-value <0.01 with at least 10 reads per CpG site as a cutoff.

[6] = test system: B16-F10-LCMV-GP tumor; assay type: in vivo, C57BL/6 mice; conditions: therapy initiated after tumor development, i.p. every 2 days, through day 17
[7] = test system: P14 CD8 T cells; test: in-vitro co-culture of P14 CD8 T cells with CT2A-gp33 tumor cells (Example 1); assay type: cell-based, mouse
Text: To study their epigenetic (re)programming, we developed a novel in-vitro model of CD8 T cell exhaustion. First, we optimized conditions for in-vitro co-culture of gp33-expressing murine brain tumor cells (CT2A-gp33) and TCR transgenic gp33-specific CD8 T cells (P14 cells). We were able to enforce differentiation of anti-tumor CD8 T cells under their persistent TCR stimulation by repeated exposure to the tumor antigen and tumor-derived factors, such as TGFβ1. […] However, with prolonged exposure to the tumor antigen, the effector CD8 T cells progressively lose cytokine production and tumor killing activity (FIGS. 8A, 8B, and 8C).
To assess the impact of TGFβ1 signaling on the progression of CD8 T cells toward dysfunction, we treated co-cultures with TGFβ1 or RepSox (also known as E-616452) (2-(3-(6-Methylpyridine-2-yl)-1H-pyrazol-4-yl)-1,5-naphthyridine) as shown in the formula: […]
RepSox is a potent selective inhibitor of the TGFβ type 1 receptor (ALK5)—for 11 days after effector differentiation was complete (day 6).
We also examined the impact of BMP-2/4 signaling on RepSox-treated P14 CD8 T cells. […] Taken together, our findings indicate that TGFβ1-signaling not only accelerates the development of T cell dysfunction, but also maintains silencing of lymphoid homing markers on CD8 T cells. Importantly, our findings support the feasibility of using this novel in-vitro model as a tractable tool that can guide our in-vivo work by providing first-line mechanistic studies.

[8] = monotherapy, in the absence of TGFβ R1 blocker

Brc1ccc(CSc2nc3ccccc3o2)cc1 [SB4, 2-[[(4-Bromophenyl)methyl]thio]benzoxazole]
expression of exhaustion-associated molecules (PD-1, LAG3, CD39, CD103, CD101) ([1]; day 21): reducing the expression
numbers of persistently stimulated CD8+ T cells ([1]; day 21): rescued significantly higher numbers
proliferation activity (Ki67) ([1]; day 21): without increasing
polyfunctionality ([1]; day 21, treatment day 7-21, after PMA/Ionomycin): significantly increased
dysfunctional CD8+ T cell responses during anti-PD-L1 treatment [2]: did not improve
expression of genes regulating T cell co-stimulation, chemotaxis and stemness (CD28, FOSB, FCGR3A, CXCL8, POU2F2) ([3]; Reprog.II versus Reprog.I): re-activated expression
expression levels of terminal dysfunction molecules ([4]; in RepSox-treated Dysf. CD8+ T cells): further reducing
effector function of Dysf. CD8+ T cells [4, 8]: not sufficient to restore
expression levels of dysfunction-related molecules (PD-1, LAG3, CD101, CD103) [4, 8]: significantly reduced
effector cytokine production ([4]; sorted most dysfunctional subset, added to RepSox): further enhanced
DNA methylation patterns in Dysf. CD8+ T cells ([5]; combined with RepSox): more pronounced
tumor control [6]: modest tumor control

Cc1cccc(-c2n[nH]cc2-c2ccc3ncccc3n2)n1 [RepSox, 2-(3-(6-Methylpyridine-2-yl)-1H-pyrazol-4-yl)-1,5-naphthyridine]
dysfunctional CD8+ T cell responses during anti-PD-L1 treatment [2]: did not improve
expression of effector function-related and memory-related genes ([3]; TGFBR1 blockade alone, Dysf. CD8+ T cells, day 28): restored substantial expression levels
ACVR1 and ACVR2A expression ([3]; normalized RNA levels, chronic stimulation): increased expression
CD62L (L-selectin) expression ([7]; P14 CD8 T cells): restored
levels of PD-1 ([7]; P14 CD8 T cells): maintained high levels
tumor killing activity ([7]; persistently stimulated P14 cells, treatment from day 6): preserved
effector function (expression of IFNγ, T-bet and Gzmb) ([7]; relative to Day 6-effector CD8 T cells): boosted the effector function
effector molecules (IFNγ, TNFα, CD107a, T-bet) ([4]; RepSox alone, day 28): restored
surface markers associated with terminal dysfunction (CD101, PD-1, LAG3) ([4]; RepSox alone, day 28): downregulated
effector cytokine production ([4]; sorted most dysfunctional subset (CD107a low CD11a low), RepSox 2 weeks): significantly recovered
DNA methylation patterns in Dysf. CD8+ T cells ([5]; RepSox alone, day 28): induced distinct methylation patterns
tumor control [6]: modest tumor control
